# Columns and labels:
# [1] = biological target: Vascular endothelial growth factor receptor 2 (Homo sapiens, UniProt P35968); test: Inhibition of VEGFR-2 (unknown origin) using poly (Glu, Tyr) 4:1 as substrate after 1 hr by ELISA
# [2] = biological target: Epidermal growth factor receptor (Homo sapiens, UniProt P00533); test: Inhibition of EGFR (unknown origin) using poly (Glu, Tyr) 4:1 as substrate after 1 hr by ELISA
# cells = details: Homo sapiens, HeLa, 72 h
# Description: Antiproliferative activity against human HeLa cells after 72 hrs by Sulforhodamine B-stain assay
# Epidermal growth factor receptor, sequence (P00533 whole entry): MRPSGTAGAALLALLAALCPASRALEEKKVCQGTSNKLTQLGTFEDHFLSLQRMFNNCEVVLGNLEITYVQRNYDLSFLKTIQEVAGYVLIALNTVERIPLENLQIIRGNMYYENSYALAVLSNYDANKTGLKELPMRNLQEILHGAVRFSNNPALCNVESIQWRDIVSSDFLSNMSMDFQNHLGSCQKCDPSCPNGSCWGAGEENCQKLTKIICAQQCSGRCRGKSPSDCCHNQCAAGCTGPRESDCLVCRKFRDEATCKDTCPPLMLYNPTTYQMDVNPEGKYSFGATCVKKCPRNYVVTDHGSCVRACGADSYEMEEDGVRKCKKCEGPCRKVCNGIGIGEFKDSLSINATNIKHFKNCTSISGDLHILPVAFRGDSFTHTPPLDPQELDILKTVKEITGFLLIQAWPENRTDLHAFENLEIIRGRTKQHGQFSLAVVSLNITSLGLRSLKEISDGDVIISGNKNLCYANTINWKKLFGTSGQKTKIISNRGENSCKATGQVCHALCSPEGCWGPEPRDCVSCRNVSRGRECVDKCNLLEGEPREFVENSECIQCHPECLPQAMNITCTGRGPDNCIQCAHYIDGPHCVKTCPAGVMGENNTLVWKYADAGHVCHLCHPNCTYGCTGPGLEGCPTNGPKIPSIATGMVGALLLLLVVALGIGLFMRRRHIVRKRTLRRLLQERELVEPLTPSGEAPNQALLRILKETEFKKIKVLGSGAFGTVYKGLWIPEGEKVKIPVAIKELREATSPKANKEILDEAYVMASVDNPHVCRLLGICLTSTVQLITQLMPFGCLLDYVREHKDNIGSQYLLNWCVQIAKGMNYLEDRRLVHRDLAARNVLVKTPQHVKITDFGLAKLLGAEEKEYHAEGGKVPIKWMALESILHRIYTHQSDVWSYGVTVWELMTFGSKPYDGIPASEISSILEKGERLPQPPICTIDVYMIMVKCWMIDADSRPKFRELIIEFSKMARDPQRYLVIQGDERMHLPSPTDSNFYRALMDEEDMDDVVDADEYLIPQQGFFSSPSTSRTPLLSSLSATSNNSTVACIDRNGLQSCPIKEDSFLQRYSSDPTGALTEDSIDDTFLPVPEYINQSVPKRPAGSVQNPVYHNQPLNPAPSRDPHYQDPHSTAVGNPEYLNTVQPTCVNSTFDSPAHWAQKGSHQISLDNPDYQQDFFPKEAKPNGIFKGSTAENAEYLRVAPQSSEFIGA
# Vascular endothelial growth factor receptor 2, sequence (P35968 whole entry): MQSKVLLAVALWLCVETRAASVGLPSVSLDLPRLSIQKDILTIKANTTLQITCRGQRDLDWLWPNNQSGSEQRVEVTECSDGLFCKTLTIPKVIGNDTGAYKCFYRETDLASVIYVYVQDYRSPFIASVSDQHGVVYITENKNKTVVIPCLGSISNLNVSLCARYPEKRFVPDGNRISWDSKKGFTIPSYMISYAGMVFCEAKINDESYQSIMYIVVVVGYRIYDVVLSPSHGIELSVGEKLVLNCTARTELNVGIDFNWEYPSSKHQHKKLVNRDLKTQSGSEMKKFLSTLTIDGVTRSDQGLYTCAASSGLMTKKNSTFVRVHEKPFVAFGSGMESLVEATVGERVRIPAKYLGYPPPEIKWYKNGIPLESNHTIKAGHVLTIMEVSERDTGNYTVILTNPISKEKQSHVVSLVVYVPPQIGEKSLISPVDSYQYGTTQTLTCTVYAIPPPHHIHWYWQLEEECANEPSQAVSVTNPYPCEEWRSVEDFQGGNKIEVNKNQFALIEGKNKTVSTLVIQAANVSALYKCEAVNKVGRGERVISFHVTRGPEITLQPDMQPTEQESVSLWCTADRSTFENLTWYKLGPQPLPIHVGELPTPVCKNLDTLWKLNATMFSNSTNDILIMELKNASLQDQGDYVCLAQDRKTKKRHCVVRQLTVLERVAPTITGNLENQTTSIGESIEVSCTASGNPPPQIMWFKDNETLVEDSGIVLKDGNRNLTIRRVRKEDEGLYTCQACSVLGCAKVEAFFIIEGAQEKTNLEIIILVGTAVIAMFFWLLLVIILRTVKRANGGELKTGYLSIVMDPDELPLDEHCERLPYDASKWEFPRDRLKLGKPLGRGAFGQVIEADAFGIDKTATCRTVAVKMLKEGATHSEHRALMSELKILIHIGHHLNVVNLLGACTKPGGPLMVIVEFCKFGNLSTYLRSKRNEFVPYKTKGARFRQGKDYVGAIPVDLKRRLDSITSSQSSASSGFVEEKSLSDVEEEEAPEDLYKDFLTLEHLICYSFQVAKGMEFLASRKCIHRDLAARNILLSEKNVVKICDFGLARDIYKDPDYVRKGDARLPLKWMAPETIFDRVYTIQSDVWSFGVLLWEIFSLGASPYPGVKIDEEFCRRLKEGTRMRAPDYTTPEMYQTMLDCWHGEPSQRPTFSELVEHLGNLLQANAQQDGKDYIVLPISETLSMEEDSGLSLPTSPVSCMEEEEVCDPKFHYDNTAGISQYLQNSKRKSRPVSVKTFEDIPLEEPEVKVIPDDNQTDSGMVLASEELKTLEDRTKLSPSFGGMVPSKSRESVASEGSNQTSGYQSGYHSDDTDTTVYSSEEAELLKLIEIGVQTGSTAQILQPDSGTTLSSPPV
SMILES,IC50 [1] [nM],IC50 [2] [nM],IC50 (cells) [nM]
O=S(=O)(Nc1ncccn1)c1ccc(Nc2nncc3ccccc23)cc1,8.5,86,14
O=S(=O)(Nc1nccs1)c1ccc(Nc2nncc3ccccc23)cc1,8.6,88,15
O=C1CS/C(=N/Nc2nncc3ccccc23)N1c1ccccc1,3.5,45,56
Oc1cc(O)c2cc(O)c(-c3cc(O)c(O)c(O)c3)[o+]c2c1 [DELPHINIDIN CHLORIDE],5.09,6.27,
CCCCNC(=S)NNc1nncc2ccccc12,4.5,52,49
NC(=S)NNc1nncc2ccccc12,7.5,77,37
CCN1C(=O)CS/C1=N/Nc1nncc2ccccc12,3.6,47,65
COc1ccc(NC(=S)NNc2nncc3ccccc23)cc1,5.7,53,38
S=C(NNc1nncc2ccccc12)Nc1ccccc1,6.2,65,39
O=S(=O)(Nc1ccccn1)c1ccc(Nc2nncc3ccccc23)cc1,7.8,84,26
S=C(NNc1nncc2ccccc12)Nc1ccc(Cl)cc1,6.1,64,20
CCN=C(S)NNc1nncc2ccccc12,7.3,76,48
NS(=O)(=O)c1ccc(Nc2nncc3ccccc23)cc1,9.8,140,12
O=C1CS/C(=N/Nc2nncc3ccccc23)N1,4.4,51,57
Cc1cc(NS(=O)(=O)c2ccc(Nc3nncc4ccccc34)cc2)no1,9.7,130,13

# Now those with a lower IC50 [1], led by results:
IC50 [1] [nM],IC50 [2] [nM],IC50 (cells) [nM],SMILES
2.7,42,42,O=C1CS/C(=N/Nc2nncc3ccccc23)N1c1ccc(Cl)cc1
1.2,23,22,CCCCN1C(=O)CS/C1=N/Nc1nncc2ccccc12
0.67,6,2.8,Fc1ccc(Nc2nncc3ccccc23)cc1
2.4,36,34,COc1ccc(N2C(=O)CS/C2=N/Nc2nncc3ccccc23)cc1
0.7,6.5,3.4,Cc1ccc(C(/C=C/c2ccc(F)cc2)=N\Nc2nncc3ccccc23)cc1
0.41,5.4,1.2,COc1ccc(/C=C/C(=N/Nc2nncc3ccccc23)c2ccc(Cl)cc2)cc1
0.42,5.6,1.4,C(=C\c1ccccc1)/C(=N/Nc1nncc2ccccc12)c1ccccc1
0.55,4.6,2.6,Clc1ccc(/C=C/C(=N/Nc2nncc3ccccc23)c2ccccc2)cc1
0.77,6.7,3.5,Cc1cc(C)nc(NS(=O)(=O)c2ccc(Nc3nncc4ccccc34)cc2)n1
0.68,6.2,3.92,O=C(O)c1ccc(Nc2nncc3ccccc23)cc1
0.88,,4.45,Fc1ccc(/C=C/C(=N/Nc2nncc3ccccc23)c2ccccc2)cc1
0.43,4.1,1.5,N#Cc1ccc(Nc2nncc3ccccc23)cc1
0.54,4.4,2.7,CCOC(=O)c1ccc(Nc2nncc3ccccc23)cc1
0.69,6.3,3.3,Clc1ccc(C(/C=C/c2ccccc2)=N\Nc2nncc3ccccc23)cc1
